Literature values as cited in patent EP0706556B1, “CLEANING AND DI[…]” (Henkel-Ecolab GmbH & Co. OHG, priority 1993, dated 1995).

C=O [Formaldehyd]
Konzentration, bei der Augenreizungen auftreten können (exposed persons, certain individuals): ≥ 0,4 ppm | Konzentration, die Lungenödeme verursacht (inhalation, humans): 50 ppm | Konzentration, die Tränenfluß verursacht (inhalation, humans): ≥ 0,1 ppm
